In patent publication US20170003277A1 (priority 2015, published 2017):

Legend:
[1] = system: mouse splenocytes; test: Microarray gene expression of ex vivo activated splenocytes from GA-immunized mice (Copaxone, Natco, Escadra, Probioglat, Hangzhou, TV-5010); assay type: cell-based
Source text: After 3 days, the mice were sacrificed and cells from their spleens (splenocytes) were isolated because such cells are representative of, and commonly utilized as a gold standard to study the immune system.
Given the robustness of the model established in our first mouse splenocyte study, we sought to expand the scope of the investigation using the exact same study design, but with an expanded set of treatments (FIG. 1). In addition to comparing Copaxone® to a purported foreign generic version, we also sought to compare purported generics from various manufacturers to each other.
Extraction of total RNA from activated splenocytes was extracted using PerfectPure RNA Cultures CEKK kit 50 (5Prime GmbH, Hamburg, Germany) and following the manufacturer's instructions. RNA quality was assessed using the absorbance ratio at 260/280 nm and gel electrophoresis (Experion, Bio-Rad, Hercules, Calif., USA). Total RNA extracted from samples was hybridized to Illumina Mouse WG-6V2 microarray chips containing more than 45,200 transcripts.
Samples were randomized on the chips to avoid batch effects. Illumina's BeadStudio software was utilized for image processing, quantification of signal intensity per bead, and background signal correction. Multiple probes were analyzed for a given gene were averaged and batch correction was conducted using Partek. […]

[2] = system: THP-1 human monocyte cell line; test: Microarray gene expression in THP-1 cells, Polimunol vs Copaxone, 6 hours (Example 9); assay type: cell-based
Source text: Based on previous power calculations (using the R package ssize.fdr), to detect differentially-expressed genes with a fold-change between treatments of as low as 1.3 with 80% power the experiment was designed to include six replicates of each condition. The order of sample processing was randomized with respect to treatment in order to avoid creating confounding batch effects.
RNA was extracted and expression profiled genome-wide using the Affymetrix U133 Plus 2.0 chip. Three batches of Copaxone® and one batch of Polimunol were comparatively tested in six replicates each. RNA processing was performed by Expression Analysis (NC, USA).
Differentially-expressed probesets were identified across conditions using linear models for microarray data (LIMMA). For comparing Copaxone® (“GA”) and purported generic, comparisons were corrected for mannitol control (i.e., [GA vs mannitol] was compared to [purported generic vs mannitol]). Probesets were filtered by calls of presence on the chip for the relevant samples in the comparison (to be considered present at a given timepoint, a probeset was required to have on average a call of present or marginal across the relevant samples at that timepoint). Probesets were mapped to genes using the U133 Plus 2.0 chip annotation from Affymetrix.

[3] = assay type: in vivo, human
Source text: The Teva Patient Support Program in Mexico has an extensive database. Given that patients can switch between branded and purported generic GA, all patients are kept within the database and are provided with patient support services.
The number of relapses reported by patients in Teva's Patient Support Program on a monthly basis during the years 2012 and 2013 i. It is again clear that when Copaxone alone was in use (i.e. throughout 2012) the overall, as well as per-month number of relapses was lower than that reported when Probioglat was present in the market (i.e. throughout 2013).
These findings have identified significant differences that warrant further investigation, especially in light of the observed clinical effects of Probioglat's introduction. The Teva Patient Support Program in Mexico records numbers of adverse events, including during the years 2012 and 2013 (Table 31; FIG. 46), for which a similar number of patients were tracked (1618 patients in 2012; 1552 in 2013). Probioglat was first introduced in January 2013; subsequently, each time a patient's prescription was filled, it could be with either Probioglat or GA. […] The gene-expression differences observed herein warrant careful investigation, through studies comparing GA to candidate generics in meaningful settings, most comprehensively including clinical trials.

[4] = Long-term animal toxicity studies of TV-5010; design: species or system rats and monkeys; settings: in vivo
[5] = Level of Copaxone in THP-1 cell culture medium over time; assay type: physicochemical; settings: THP-1 culture medium, over 24 hours; 50 μg/mL spiked

Substance: glatiramer acetate [Copaxone®]
- IL1B expression, Copaxone compared with Natco purported generic ([1]; first mouse splenocyte study, adjusted p=0.043 by ANOVA): significantly lower IL1B expression
- IL1B expression relative to medium ([1]; mouse splenocytes): extremely effective in downregulating IL1B
- IL10RA expression relative to mannitol ([2]; adjusted p<2.8e-14): significantly upregulated
- IL1RN expression relative to mannitol ([2]; adjusted p<2.8e-10): significantly upregulated
- IL10 expression relative to mannitol ([2]; probeset called absent, p<0.029): nominally upregulated
- Numbers of relapses reported ([3]; 2012, only branded GA marketed, 1618 patients): 8
- Adverse Event Rate (per month) ([3]; human, in vivo): 10.4 per month
- Numbers of adverse events reported ([3]; human, in vivo): 125
- Toxicity in long-term animal studies [4]: never seen
- Copaxone concentration in cell culture medium [5]: 44 to 52 µg/mL
